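In this assay, cells in 96-well plates receive the compound at five concentrations for 48 hours. Endpoints are linearly interpolated between the surrounding concentrations. GI50 marks 50% less growth.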 Active and inactive are the calls of the source. Rule as the data show it: active = GI50 up to about 1.1 µM and inactive = higher.
Key:
Assay in all cases: DTP human tumour cell line panel, 48 h
DU-145 = test system: DU-145
MDA-N = test system: MDA-N
SN12C = test system: SN12C
UO-31 = test system: UO-31
SF-268 = test system: SF-268
SK-MEL-2 = test system: SK-MEL-2
NCI-H226 = test system: NCI-H226
SW-620 = test system: SW-620
HCT-15 = test system: HCT-15
LOX IMVI = test system: LOX IMVI
Hs-578T = test system: Hs-578T
COLO 205 = test system: COLO 205
MOLT-4 = test system: MOLT-4
MDA-MB-231 = test system: MDA-MB-231
786-0 = test system: 786-0
UACC-257 = test system: UACC-257
M14 = test system: M14
NCI-H460 = test system: NCI-H460

Structure (SMILES) | GI50 (DU-145) | GI50 (MDA-N) | GI50 (SN12C) | GI50 (UO-31) | GI50 (SF-268) | GI50 (SK-MEL-2) | GI50 (NCI-H226) | GI50 (SW-620) | GI50 (HCT-15) | GI50 (LOX IMVI) | GI50 (Hs-578T) | GI50 (COLO 205) | GI50 (MOLT-4) | GI50 (MDA-MB-231) | GI50 (786-0) | GI50 (UACC-257) | GI50 (M14) | GI50 (NCI-H460)
NC1CNC(=O)c2c(Cl)sc(Cl)c21 (stereo not drawn) | > 100 µM (inactive) | > 100 µM (inactive) | > 100 µM (inactive) | > 100 µM (inactive) | > 100 µM (inactive) | > 100 µM (inactive) | > 100 µM (inactive) | > 100 µM (inactive) | > 100 µM | > 100 µM (inactive) | > 100 µM (inactive) | > 100 µM (inactive) | 78.5 µM (inactive) | > 100 µM (inactive) | > 100 µM (inactive) | > 100 µM (inactive) | > 100 µM (inactive) | > 100 µM (inactive)
CC(=O)O[C@H]1[C@@H](N2CCOCC2)C[C@H]2[C@@H]3CC=C4C[C@@H](N5CCCC5)CC[C@]4(C)[C@H]3CC[C@@]21C | > 100 µM (inactive) | > 100 µM (inactive) | > 100 µM (inactive) | > 100 µM (inactive) | > 100 µM (inactive) | > 100 µM (inactive) | > 100 µM (inactive) | > 100 µM (inactive) | > 100 µM | > 100 µM (inactive) | > 100 µM (inactive) | > 100 µM (inactive) | > 100 µM (inactive) | > 100 µM (inactive) | > 100 µM (inactive) | > 100 µM (inactive) | 35.4 µM (inactive) | > 100 µM (inactive)
CC(C)C(=O)OCC1OC(n2c(Br)nc3c(=O)[nH]c(N)nc32)C(OC(=O)C(C)C)C1OC(=O)C(C)C (stereo not drawn) | > 100 µM (inactive) | 41 µM (inactive) | 48 µM (inactive) | > 100 µM (inactive) | 37.1 µM (inactive) | 68.1 µM (inactive) | > 100 µM (inactive) | 29.2 µM (inactive) | > 100 µM | 19.8 µM (inactive) | 29 µM (inactive) | 90.4 µM (inactive) | 19.3 µM (inactive) | > 100 µM (inactive) | 23.1 µM (inactive) | > 100 µM (inactive) | > 100 µM (inactive) | 23.7 µM (inactive)
CSC(=S)N/N=C(\C)c1ccc(S(=O)(=O)N(C)c2ccccc2)cc1 | > 100 µM (inactive) | 30.3 µM (inactive) | > 100 µM (inactive) | 15.7 µM (inactive) | 9.44 µM (inactive) | 35.3 µM (inactive) | 20.1 µM (inactive) | 41.9 µM (inactive) | 34.2 µM | 18.3 µM (inactive) | 15.5 µM (inactive) | 68.4 µM (inactive) | 19 µM (inactive) | 98.4 µM (inactive) | 34.4 µM (inactive) | 33.7 µM (inactive) | 25.5 µM (inactive) | 5.13 µM (inactive)
CCOC(=O)c1cc(C(=O)c2ccccc2)n2nc(-c3ccc(Cl)cc3)ccc12 | 27.6 µM (inactive) | 48.8 µM (inactive) | 25.2 µM (inactive) | 14.1 µM (inactive) | 13.5 µM (inactive) | 17.4 µM (inactive) | 20.4 µM (inactive) | 93.8 µM (inactive) | 33.9 µM | 56.4 µM (inactive) | 17.5 µM (inactive) | 50.7 µM (inactive) | > 100 µM (inactive) | 36.2 µM (inactive) | 15.2 µM (inactive) | 30.1 µM (inactive) | 31.8 µM (inactive) | 22.1 µM (inactive)
C#C[C@]1(O)CC[C@H]2[C@@H]3CCC4=C/C(=N\OCCN5CCCCC5)CC[C@]4(C)[C@H]3CC[C@@]21C | 8.51 µM (inactive) | 1.66 µM (inactive) | 6.89 µM (inactive) | 4.23 µM (inactive) | 6.44 µM (inactive) | 2.77 µM (inactive) | 17.2 µM (inactive) | 4.33 µM (inactive) | 7.31 µM | 3.58 µM (inactive) | 3.53 µM (inactive) | 2.12 µM (inactive) | 3.9 µM (inactive) | 13.9 µM (inactive) | 3.63 µM (inactive) | 3.98 µM (inactive) | 3.27 µM (inactive) | 6.78 µM (inactive)

From ChEMBL document CHEMBL1201862, “PubChem BioAssay data set” (2004)
